The source made the active and inactive calls. No cut-off for these calls is given here.
Columns and labels:
[1] = target: T1, 11-beta-hydroxysteroid dehydrogenase 1 (Homo sapiens, UniProt P28845); experiment: Inhibition of human 11beta-HSD1 transfected in CHOP cells; format: cell-based
Target sequence in this assay (P28845 whole entry): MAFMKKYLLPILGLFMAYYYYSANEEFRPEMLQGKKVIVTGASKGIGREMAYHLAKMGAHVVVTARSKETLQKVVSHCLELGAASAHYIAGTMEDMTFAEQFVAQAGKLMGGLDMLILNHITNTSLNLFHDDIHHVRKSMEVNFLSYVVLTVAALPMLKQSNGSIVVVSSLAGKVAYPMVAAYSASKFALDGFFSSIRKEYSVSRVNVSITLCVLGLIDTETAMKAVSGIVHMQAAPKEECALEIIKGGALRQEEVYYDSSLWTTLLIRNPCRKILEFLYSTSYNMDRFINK

[2] = target: T1, 11-beta-hydroxysteroid dehydrogenase 1; experiment: Ratio of curcumin IC50 to compound IC50 for human 11beta-HSD1 transfected in CHOP cells; format: cell-based
Target sequence in this assay (P28845 whole entry, looked up): as the sequence (P28845 whole entry) above

[3] = target: T1, 11-beta-hydroxysteroid dehydrogenase 1; experiment: Inhibition of 11beta-HSD1 in human liver microsomes using [3H]-cortisone as substrate assessed as formation of cortisol after 60 to 90 mins by radiometric analysis; set-up: species or system Microsome
Target sequence in this assay (P28845 whole entry): as above

[4] = target: T2, 11-beta-hydroxysteroid dehydrogenase type 2 (Homo sapiens) (UniProt P80365); experiment: Inhibition of 11beta-HSD2 in human kidney microsomes using [3H]-cortisol as substrate assessed as formation of cortisone at 100 uM after 30 mins by radiometric analysis relative to control; details: Microsome
T2 sequence (whole entry): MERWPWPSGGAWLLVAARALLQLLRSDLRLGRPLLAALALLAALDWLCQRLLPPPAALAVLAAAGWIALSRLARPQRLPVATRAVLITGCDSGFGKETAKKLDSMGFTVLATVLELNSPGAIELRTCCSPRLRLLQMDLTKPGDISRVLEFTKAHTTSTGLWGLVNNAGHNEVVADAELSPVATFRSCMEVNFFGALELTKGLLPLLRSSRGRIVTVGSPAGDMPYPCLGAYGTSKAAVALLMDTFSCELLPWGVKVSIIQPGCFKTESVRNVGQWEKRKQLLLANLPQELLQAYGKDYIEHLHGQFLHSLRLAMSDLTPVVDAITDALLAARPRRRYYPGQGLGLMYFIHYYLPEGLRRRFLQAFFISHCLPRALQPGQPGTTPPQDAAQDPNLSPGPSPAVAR

[5] = target: T3, 11-beta-hydroxysteroid dehydrogenase 1 (Rattus norvegicus, UniProt P16232); experiment: Inhibition of 11beta-HSD1 in Sprague-Dawley rat leydig cells […]
T3 sequence (P16232 whole entry): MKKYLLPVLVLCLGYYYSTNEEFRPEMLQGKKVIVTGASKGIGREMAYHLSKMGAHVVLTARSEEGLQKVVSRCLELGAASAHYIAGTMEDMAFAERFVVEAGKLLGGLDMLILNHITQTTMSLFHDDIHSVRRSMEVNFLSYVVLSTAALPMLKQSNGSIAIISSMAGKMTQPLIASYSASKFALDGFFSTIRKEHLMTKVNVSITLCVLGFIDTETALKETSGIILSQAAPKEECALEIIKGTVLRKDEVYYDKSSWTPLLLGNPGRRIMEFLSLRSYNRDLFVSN

[6] = target: T3, 11-beta-hydroxysteroid dehydrogenase 1; experiment: Inhibition of 11beta-HSD1 in rat testis microsomes using [3H]-11-DHC as substrate assessed as formation of CORT after 60 to 90 mins by radiometric analysis; set-up: species or system Microsome
[7] = target: T4, 11-beta-hydroxysteroid dehydrogenase type 2 (Rattus norvegicus) (UniProt P50233); experiment: Inhibition of 11beta-HSD2 in rat kidney microsomes using [3H]-CORT as substrate assessed as formation of 11-DHC at 100 uM after 30 mins by radiometric analysis relative to control; details: Microsome
T4 sequence (whole entry): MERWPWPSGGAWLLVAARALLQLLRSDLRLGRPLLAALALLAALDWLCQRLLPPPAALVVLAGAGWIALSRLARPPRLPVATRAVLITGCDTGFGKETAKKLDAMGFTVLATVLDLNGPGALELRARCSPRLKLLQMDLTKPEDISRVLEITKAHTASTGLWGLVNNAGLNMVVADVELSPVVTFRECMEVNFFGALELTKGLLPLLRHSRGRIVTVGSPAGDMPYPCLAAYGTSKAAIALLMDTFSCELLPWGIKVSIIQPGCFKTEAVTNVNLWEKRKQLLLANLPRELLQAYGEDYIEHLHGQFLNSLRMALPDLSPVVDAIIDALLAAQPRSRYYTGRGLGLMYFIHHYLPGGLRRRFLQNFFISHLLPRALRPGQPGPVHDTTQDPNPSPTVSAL

[8] = target: T1, 11-beta-hydroxysteroid dehydrogenase 1; experiment: Inhibition of human 11beta-HSD1 transfected in CHOP cells at 100 uM relative to control; format: cell-based
Target sequence in this assay (P28845 whole entry, looked up): as the sequence (P28845 whole entry) above

[9] = test system: J774.A1; experiment: Antiinflammatory activity in mouse J774A1 cells assessed as LPS-induced TNFalpha production at 10 uM incubated 2 hrs prior to LPS challenge measured after 24 hrs by ELISA relative to vehicle-treated control; format: functional
[10] = target: T1, 11-beta-hydroxysteroid dehydrogenase 1; experiment: Inhibition of 11beta-HSD1 in human liver microsomes using [3H]-cortisone as substrate assessed as formation of cortisol at 100 uM after 60 to 90 mins by radiometric analysis relative to control; details: Microsome
Target sequence in this assay (P28845 whole entry, looked up): as the sequence (P28845 whole entry) above

[11] = target: 11-beta-hydroxysteroid dehydrogenase 1 (Rattus norvegicus) (UniProt P16232); experiment: Inhibition of 11beta-HSD1 in rat testis microsomes using [3H]-11-DHC as substrate assessed as formation of CORT at 100 uM after 60 to 90 mins by radiometric analysis relative to control; details: Microsome
11-beta-hydroxysteroid dehydrogenase 1 (Rattus norvegicus), sequence (P16232 whole entry, looked up): as the sequence (P16232 whole entry) above

[12] = target: 11-beta-hydroxysteroid dehydrogenase 1 (Rattus norvegicus) (UniProt P16232); experiment: Inhibition of 11beta-HSD1 in Sprague-Dawley rat leydig cells […] relative to control; details: 100 uM

Row | SMILES | IC50 [1] | Ratio IC50 [2] | IC50 [3] | inhibition [4] | IC50 [5] | IC50 [6] | inhibition [7] | inhibition [8] | inhibition [10] | inhibition [11] | inhibition [12] | inhibition [9]
1 | O=C1/C(=C/c2ccccc2Br)CC/C1=C\c1ccccc1Br | 144 nM | 9 | 6110 nM | 36% | 1450 nM | 2880 nM | 22% |  |  |  |  | 
2 | O=C1/C(=C/c2ccc(OC3CCCCO3)cc2)CCC/C1=C\c1ccc(OC2CCCCO2)cc1 (configuration not stated) |  |  |  | 17% |  |  | 48% | 28% | 14% | 45% | 28% | inactive
3 | COc1cc(/C=C/C(=O)/C=C/c2cc(OC)c(OC)c(OC)c2)cc(OC)c1OC |  |  |  | 1% |  |  | 11% | 40% | 16% | 0% | 5% | inactive
4 | COc1cc(/C=C2\CCC/C(=C\c3cc(OC)c(OC)c(OC)c3)C2=O)cc(OC)c1OC |  |  |  | 13% |  |  | 23% | 14% | 21% | 35% | 42% | inactive
5 | C=CCOc1ccc(/C=C2\CC/C(=C\c3ccc(OCC=C)c(OC)c3)C2=O)cc1OC |  |  |  | 10% |  |  | 0% | 31% | 13% | 14% | 17% | 
6 | COc1cc(/C=C2\CC/C(=C\c3ccc(OC4CCCCO4)c(OC)c3)C2=O)ccc1OC1CCCCO1 (configuration not stated) |  |  |  | 0% |  |  | 11% | 26% | 26% | 13% | 18% | inactive
7 | C=CCOc1ccc(/C=C2\CCC/C(=C\c3ccc(OCC=C)c(OC)c3)C2=O)cc1OC |  |  |  | 6% |  |  | 8% | 16% | 7% | 15% | 6% | 
8 | O=C(/C=C/c1ccc(O)cc1)/C=C/c1ccc(O)cc1 | 832 nM | 5 | 4420 nM | 44% | 986 nM |  | 7% |  |  | 41% |  | 
9 | COc1cc(/C=C/C(=O)/C=C/c2ccc(OC3CCCCO3)c(OC)c2)ccc1OC1CCCCO1 (configuration not stated) |  |  |  | 0% | 52500 nM |  | 16% | 28% | 28% | 19% |  | 
10 | C=CCOc1ccc(/C=C/C(=O)/C=C/c2ccc(OCC=C)c(OC)c2)cc1OC |  |  |  | 13% |  |  | 19% | 1% | 14% | 9% | 18% | 
11 | CN(C)c1ccc(/C=C2\CC/C(=C\c3ccc(N(C)C)cc3)C2=O)cc1 |  |  |  | 0% |  |  | 1% | 16% | 15% | 0% | 13% | inactive
12 | C=CCOc1ccc(/C=C2\CC/C(=C\c3ccc(OCC=C)cc3)C2=O)cc1 |  |  |  | 0% |  |  | 15% | 23% | 28% | 9% | 10% | 
13 | CN(C)c1ccc(/C=C/C(=O)/C=C/c2ccc(N(C)C)cc2)cc1 |  |  |  | 0% |  |  | 13% | 29% | 24% | 0% | 10% | inactive
14 | COc1cc(/C=C2\CCC/C(=C\c3ccc(OC4CCCCO4)c(OC)c3)C2=O)ccc1OC1CCCCO1 (configuration not stated) |  |  |  | 6% |  | 65400 nM | 14% | 40% | 37% |  | 8% | 
15 | CCOc1ccc(/C=C/C(=O)/C=C/c2ccc(OCC)cc2)cc1 |  |  |  | 8% | 9950 nM |  | 27% | 9% | 36% | 7% |  | 
16 | O=C(/C=C/c1ccc(F)cc1)/C=C/c1ccc(F)cc1 | 507 nM | 9 |  | 26% | 229 nM |  | 22% |  | 37% | 2% |  | inactive
17 | COc1cc(/C=C2\CC/C(=C\c3ccc(O)c(OC)c3)C2=O)ccc1O |  |  |  | 13% |  |  | 34% | 17% | 49% | 52% | 19% | 
18 | O=C1/C(=C/c2cccc(Br)c2)CC/C1=C\c1cccc(Br)c1 | 97 nM | 9 | 3510 nM | 23% | 1150 nM | 599 nM | 3% |  |  |  |  | 
19 | COc1cc(/C=C/C(=O)/C=C/c2ccc(O)c(OC)c2)ccc1O | 257 nM | 5 | 70900 nM | 39% | 292 nM | 16100 nM | 35% |  |  |  |  | 
20 | O=C1/C(=C/c2cccc(C(F)(F)F)c2F)CC/C1=C\c1cccc(C(F)(F)F)c1F |  |  |  | 0% |  |  | 5% | 24% | 23% | 2% | 22% | 

The next lines start with results.

Row | IC50 [1] | Ratio IC50 [2] | IC50 [3] | inhibition [4] | IC50 [5] | IC50 [6] | inhibition [7] | inhibition [8] | inhibition [10] | inhibition [11] | inhibition [12] | SMILES | inhibition [9]
21 |  |  |  | 13% | 17200 nM |  | 24% | 54% | 36% | 13% |  | O=C(/C=C/c1ccc(OC2CCCCO2)cc1)/C=C/c1ccc(OC2CCCCO2)cc1 (configuration not stated) | inactive
22 |  |  |  | 24% | 4170 nM |  | 12% | 49% | 15% | 2% |  | CN(C)CCCOc1ccc(/C=C2\CC/C(=C\c3ccc(OCCCN(C)C)cc3)C2=O)cc1 | 
23 | 195 nM | 5 | 1940 nM | 0% | 633 nM |  | 24% |  |  | 63% |  | O=C1/C(=C/c2ccc(O)cc2)CCC/C1=C\c1ccc(O)cc1 | 
24 |  |  |  | 0% |  |  | 17% | 12% | 39% | 32% | 21% | O=C1/C(=C/c2ccc(O)cc2)CC/C1=C\c1ccc(O)cc1 | 
25 |  |  |  | 0% |  |  | 13% | 9% | 30% | 11% | 22% | O=C1/C(=C/c2ccc(OC3CCCCO3)cc2)CC/C1=C\c1ccc(OC2CCCCO2)cc1 (configuration not stated) | inactive
26 |  |  |  | 6% |  |  | 23% | 18% | 18% | 19% | 8% | C=CCOc1ccc(/C=C2\CCC/C(=C\c3ccc(OCC=C)cc3)C2=O)cc1 | 
27 |  |  |  | 21% |  |  | 20% | 26% | 14% | 16% | 37% | CN(C)c1ccc(/C=C2\CCC/C(=C\c3ccc(N(C)C)cc3)C2=O)cc1 | inactive
28 |  |  |  | 2% |  |  | 16% | 4% | 35% | 0% | 22% | C=CCOc1ccc(/C=C/C(=O)/C=C/c2ccc(OCC=C)cc2)cc1 | 
29 |  |  |  | 11% |  |  | 14% | 16% | 17% | 17% | 26% | CCOc1ccc(/C=C2\CCC/C(=C\c3ccc(OCC)cc3)C2=O)cc1 | 
30 |  |  |  | 5% |  |  | 9% | 31% | 16% | 12% | 18% | COc1cc(/C=C2\CC/C(=C\c3cc(OC)c(OC)c(OC)c3)C2=O)cc(OC)c1OC | inactive

From ChEMBL document CHEMBL2401685 (Bioorg Med Chem Lett, 2013)
